Experimental data: paper PMC7763995 (Molecules, 2020)
Where two headings read alike, the source gives them in different places.

What was measured:
[1] = system: mouse brain homogenate; assay: Luminol chemiluminescence assay in mouse brain homogenate (TBHP-initiated); conditions: compound concentration 20 µM; mice brain homogenate
Procedure: (§1) The work was carried out in accordance with the EU Directive 2010/63/EU. Hybrid BDF1 mice (about 6 months old) were sacrificed by decapitation. Each brain was rapidly excised, frozen in liquid nitrogen, and stored at −80°C until use. The brains were thawed and homogenized using a Wisd WiseTis HG-15D homogenizer for 2 min in a buffer (0.01 M PBS, pH 7.4 or 0.1 M Tris-HCl, pH 7.4). Protein concentrations were determined by the Lowry method.
Luminol-dependent chemiluminescence produced by mouse brain homogenates was measured using a 1250 Luminometer (LKB Wallac, Turku, Finland) according to the assay by Di Meo et al. with minor modifications. The reaction mixture consisted of mouse brain homogenate (protein concentration 0.1 mg/mL) in 0.1 M Tris-HCl (Sigma-Aldrich), pH 7.4, luminol (Sigma-Aldrich) (0.05 mM), TBHP (Sigma-Aldrich) (0.073 M) and tested compounds at a concentration of 20 μM. This was placed in a light-proof luminometer chamber and the background reading was recorded. All measurements were carried out at 37°C. The gain control was set to give a reading of 10 mV using a built-in standard. The free radical content in mouse brain homogenate was evaluated by the change in the light sum (the area under the kinetic curve of luminescence intensity for the entire luminescence time). All compounds were examined at least in triplicate. The effects of tested compounds were measured as the percentage decrease in the light sum relative to the control (a sample with no compound added).

[2] = system: mouse brain homogenate; assay: TBARS assay, spontaneous lipid peroxidation in mouse brain homogenate; conditions: read-out: Inhibition of Spontaneous Lipid Peroxidation in Mice Brain Homogenate, TBARS Assay, IC50
Procedure: as §1
The procedure was performed in accordance with the method of Ohkawa et al. with minor modifications. Briefly, mouse brain homogenate (protein concentration 1 mg/mL) in PBS (0.1 M, pH 7.4) was incubated for 30 min at 37°C with tested conjugates, and the reaction was terminated by addition of 0.4 mL of 17% (w/v) trichloroacetic acid (Sigma-Aldrich). Following centrifugation for 20 min at 1300× g, 0.5 mL of 0.8% (w/v) of TBA (Sigma-Aldrich) was added to 1 mL of supernatant, heated for 30 min at 95°C and then cooled to RT. The optical density of the TBARS, which corresponds to the produced MDA, was measured at 532 nm against a blank using an Agilent Cary 60 UV-Vis spectrophotometer (Agilent, Santa Clara, CA, USA). The MDA concentration was calculated using an extinction coefficient of 1.56 × 10^5 M^−1cm^−1. Trolox and BHT were used as reference antioxidants. Compounds were dissolved in DMSO (Sigma-Aldrich) and tested in a concentration range 0.01–100 μM. All compounds were examined at least in triplicate.

[3] = FRAP (ferric reducing antioxidant power) assay; conditions: 20 µM, 1 h incubation; ratio of concentrations of Trolox and test compound with same effect
Procedure: The FRAP (ferric reducing antioxidant power) assay proposed by Benzie and Strain [80, 81] was modified to be performed in 96-well microplates. The FRAP reagent contained 2.5 mL of 10 mM TPTZ (2,4,6-tris(2-pyridyl)-s-triazine (Sigma-Aldrich) solution in 40 mM HCl, 2.5 mL of 20 mM FeCl3 (Sigma-Aldrich) in distilled water and 25 mL of 0.3 M acetate buffer (pH 3.6). In 96-well microplates, 10 µL aliquots of the substance under investigation (compounds 7, 8 or reference substance) dissolved in DMSO (0.5 mM) were placed in quadruplicate. The FRAP reagent (240 µL) freshly prepared and warmed to 37°C was added to three of these samples, while the same volume of acetate buffer was added to the fourth one (blank). Consequently, the concentration of the substance in a plate was 20 µM. The absorbance at 600 nm was monitored spectrophotometrically with a FLUOStar OPTIMA microplate reader at 37°C for an hour with an interval of 5–10 min. Data in Table 2 are given for 1 h of incubation of compounds with FRAP reagent. The absorbances of the blanks and those of the mixture of 240 µL FRAP reagent plus 10 µL DMSO were subtracted from the absorbances of the samples at each time interval to calculate the absorbance change. Standard antioxidants Trolox and BHT dissolved in DMSO and analyzed as described above were used as reference compounds. A calibration curve with linear formula y = 0.03x (R^2 = 0.998, p < 0.0001) was obtained for Trolox solution in DMSO in the range 2.5–100 µM and the results were expressed as FRAP units (the values calculated as the ratio of the concentrations of Trolox and the test compound resulting in the same effect.)

[4] = ABTS radical cation scavenging activity assay; conditions: for IC50 / ABTS^•+-Scavenging Activity, TEAC: 1 h incubation; for ABTS^•+-Scavenging Activity, TEAC: ratio of slopes test compound/Trolox
Procedure: Radical scavenging activity of the compounds was assessed using the ABTS radical decolorization assay with some modifications. ABTS was purchased from Tokyo Chemical Industry Co., Ltd. (Tokyo, Japan), potassium persulfate (dipotassium peroxodisulfate), Trolox (6-hydroxy-2,5,7,8-tetramethychroman-2-carboxylic acid), and HPLC-grade ethanol were obtained from Sigma-Aldrich. Aqueous solutions were prepared using deionized water.
The solution of cation radical ABTS^•+ was produced by incubation of ABTS with potassium persulfate in deionized water for 12–16 h at room temperature in the dark. Radical scavenging capacity of the compounds was analyzed by mixing 10 μL of compound with 240 μL of ABTS^•+ working solution in ethanol (100 μM final concentration). The reaction was monitored for an hour with an interval of 5–10 min. Data are given for 1 h of incubation of compounds with ABTS^•+. The reduction in absorbance was measured spectrophotometrically at 734 nm using a xMark microplate UV/VIS microplate spectrophotometer (Bio-Rad, Hercules, CA, USA).
Ethanol blanks were run in each assay. Values were obtained from three replicates of each sample and three independent experiments. Standard antioxidants Trolox and BHT were used as reference compounds.
Antioxidant capacity as Trolox equivalent (TEAC) values was determined as the ratio between the slopes obtained from the linear correlation of the ABTS radical absorbance with the concentrations of tested compounds and Trolox. […] The compounds were tested in the concentration range of 0.1–100 µM.

[5] = system: Porcine liver CES; assay: In vitro CES inhibition, 4-NPA substrate; type: biochemical; conditions: compound concentration 20 µM; n.a. = not active
Procedure: (§2) Measurements were performed with a FLUOStar Optima microplate reader (BMG Labtech, Ortenberg, Germany). Compounds were dissolved in DMSO, the incubation mixture contained 2% solvent.

[6] = target: T1, EeAChE PAS (Electrophorus electricus, UniProt O42275); type: binding; conditions: compound concentration 20 µM
T1 construct: Electric eel AChE (EeAChE, type VI-S, lyophilized powder); purchased Sigma-Aldrich type VI-S; host or cells: electric eel
T1 sequence (O42275 24-633): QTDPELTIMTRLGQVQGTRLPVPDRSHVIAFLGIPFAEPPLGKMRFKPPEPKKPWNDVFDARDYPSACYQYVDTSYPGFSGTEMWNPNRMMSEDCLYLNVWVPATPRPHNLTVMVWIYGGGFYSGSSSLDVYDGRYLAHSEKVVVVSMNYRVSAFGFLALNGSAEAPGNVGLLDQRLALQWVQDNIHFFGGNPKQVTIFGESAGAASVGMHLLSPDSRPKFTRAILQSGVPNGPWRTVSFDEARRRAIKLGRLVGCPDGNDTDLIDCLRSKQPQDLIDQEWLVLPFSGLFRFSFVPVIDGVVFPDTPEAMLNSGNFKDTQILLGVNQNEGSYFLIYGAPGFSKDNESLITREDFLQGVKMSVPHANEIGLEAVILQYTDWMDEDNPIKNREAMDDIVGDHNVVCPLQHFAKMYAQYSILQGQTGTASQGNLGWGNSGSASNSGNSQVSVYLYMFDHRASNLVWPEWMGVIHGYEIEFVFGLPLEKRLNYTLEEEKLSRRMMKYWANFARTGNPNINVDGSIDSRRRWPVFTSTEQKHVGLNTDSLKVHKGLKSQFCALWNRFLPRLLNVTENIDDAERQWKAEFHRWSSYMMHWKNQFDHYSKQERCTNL
Procedure: Electric eel AChE (EeAChE, type VI-S, lyophilized powder, Sigma-Aldrich, Saint Louis, MO, USA) was used owing to its high degree of purification, high activity, and lower cost compared to human AChE.
The blank contained propidium iodide of the same concentration in 1 mM Tris-HCl buffer pH 8.0. The measurements were carried out in triplicate on a FLUOStar Optima microplate reader, and the results were calculated by formula (1):% Displacement = 100 − (IFAChE+ Propidium + inhibitor / IFAChE + Propidium) × 100(1) where IFAChE + Propidium is the fluorescence intensity of the propidium associated with AChE in the absence of the test compound (taken as 100%), and IFAChE + Propidium + inhibitor is the fluorescence intensity of the propidium associated with AChE in the presence of the test compound.

[7] = target: T2, Human erythrocyte AChE (Homo sapiens, UniProt P22303); assay: biochemical
T2 construct: AChE from human erythrocytes was used; purchased Sigma-Aldrich; host or cells: human erythrocytes
T2 sequence (P22303 32-617 isoform P22303-2 limits assumed): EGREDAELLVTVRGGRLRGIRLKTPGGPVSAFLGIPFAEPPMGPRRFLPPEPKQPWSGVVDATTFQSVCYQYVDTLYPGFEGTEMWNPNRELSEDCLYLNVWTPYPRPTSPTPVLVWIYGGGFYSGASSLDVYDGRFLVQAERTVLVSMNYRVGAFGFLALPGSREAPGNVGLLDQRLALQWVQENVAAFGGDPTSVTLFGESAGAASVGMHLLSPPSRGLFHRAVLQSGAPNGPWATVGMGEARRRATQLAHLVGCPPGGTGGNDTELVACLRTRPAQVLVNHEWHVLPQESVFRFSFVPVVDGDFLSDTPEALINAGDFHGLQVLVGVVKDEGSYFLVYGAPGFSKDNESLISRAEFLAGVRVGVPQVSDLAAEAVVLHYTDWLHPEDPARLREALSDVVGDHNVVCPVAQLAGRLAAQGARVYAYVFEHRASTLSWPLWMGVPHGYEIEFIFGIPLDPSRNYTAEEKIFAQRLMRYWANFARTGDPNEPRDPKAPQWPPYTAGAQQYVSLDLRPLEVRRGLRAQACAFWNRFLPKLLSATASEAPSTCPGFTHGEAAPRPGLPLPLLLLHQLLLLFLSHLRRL
Procedure: as §2

[8] = target: T3, Equine serum BChE (Equus caballus, UniProt P81908); assay: biochemical; conditions: for Selectivity for BChE: IC50 AChE / IC50 BChE
T3 construct: equine serum BChE; purchased Sigma-Aldrich; host or cells: equine serum
T3 sequence (P81908 whole entry): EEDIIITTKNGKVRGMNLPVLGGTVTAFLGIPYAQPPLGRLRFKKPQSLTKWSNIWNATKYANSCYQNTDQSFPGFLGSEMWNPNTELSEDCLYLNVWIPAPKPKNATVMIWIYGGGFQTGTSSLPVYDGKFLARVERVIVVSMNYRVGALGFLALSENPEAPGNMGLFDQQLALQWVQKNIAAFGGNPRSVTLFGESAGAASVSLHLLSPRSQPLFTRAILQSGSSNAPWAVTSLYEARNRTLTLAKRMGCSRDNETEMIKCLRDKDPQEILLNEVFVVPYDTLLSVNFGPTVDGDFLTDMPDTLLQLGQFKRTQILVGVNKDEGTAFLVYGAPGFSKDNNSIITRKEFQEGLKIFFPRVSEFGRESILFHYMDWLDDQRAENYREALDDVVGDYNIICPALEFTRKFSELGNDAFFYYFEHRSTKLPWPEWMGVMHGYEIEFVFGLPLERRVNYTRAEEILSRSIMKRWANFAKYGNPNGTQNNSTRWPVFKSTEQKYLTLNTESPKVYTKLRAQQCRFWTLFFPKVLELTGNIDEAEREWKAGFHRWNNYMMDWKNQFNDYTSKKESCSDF
Procedure: as §2

[9] = system: AChE-induced Aβ aggregation; set-up: method as in PMID 15658850; conditions: cited from earlier work
[10] = system: AChE; set-up: method as in PMID 15658850; conditions: read-out: anti-AChE activity, IC50; cited from earlier work
[11] = mean ± SEM, n = 3, n.a. = not active, read-out: Human Erythrocyte AChE, IC50
[12] = mean ± SEM, n = 3, n.a. = not active, read-out: Equine Serum BChE, IC50

Cc1cc(C(C)(C)C)c(O)c(C(C)(C)C)c1 [BHT, butylated hydroxytoluene, reference compound]
Radical Scavenging Capacity in Luminol Chemiluminescence Assay, Luminescence Inhibition, % [1]: 72.0 ± 2.6%
IC50 [2]: 6.89 ± 0.26 µM
Ferric Reducing Antioxidant Power, FRAP Units [3]: 1.76 ± 0.07
IC50 [4]: 22.4 ± 1.4 µM
ABTS^•+-Scavenging Activity, TEAC [4]: 0.98 ± 0.03

O=[N+]([O-])c1ccc(OP(=O)(O)Oc2ccc([N+](=O)[O-])cc2)cc1 [BNPP, bis-4-nitrophenyl phosphate, reference compound]
Porcine Liver CES, (%) inhibition [5]: 92.1 ± 1.8 ^3%

CC(C)(C)c1cc(C=NCCNc2c3c(nc4ccccc24)CCC3)cc(C(C)(C)C)c1O [Compound 7a, 2,6-Di-tert-butyl-4-{[2-(2,3-dihydro-1H-cyclopenta[b]quinolin-9-ylamino)-ethylimino]-methyl}-phenol]
Radical Scavenging Capacity in Luminol Chemiluminescence Assay, Luminescence Inhibition, % [1]: 94.0 ± 0.2%
Displacement of Propidium from EeAChE PAS (%) [6]: 18.1 ± 1.6%
IC50 [7, 11]: 4.86 ± 0.01 µM
Selectivity for BChE [8]: 2.5
IC50 [8, 12]: 1.92 ± 0.11 µM
Porcine Liver CES, (%) inhibition [5]: 26.1 ± 0.7%
IC50 [2]: 19.6 ± 0.8 µM
Ferric Reducing Antioxidant Power, FRAP Units [3]: 0.51 ± 0.03
IC50 [4]: 22.3 ± 1.5 µM

CC(C)(C)c1cc(C=NCCNc2c3c(nc4ccccc24)CCCC3)cc(C(C)(C)C)c1O [Compound 7b, 2,6-Di-tert-butyl-4-{[2-(1,2,3,4-tetrahydro-acridin-9-ylamino)-ethylimino]-methyl}-phenol]
Radical Scavenging Capacity in Luminol Chemiluminescence Assay, Luminescence Inhibition, % [1]: 95.0 ± 0.2%
Displacement of Propidium from EeAChE PAS (%) [6]: 18.2 ± 1.6%
IC50 [7, 11]: 5.98 ± 0.13 µM
Selectivity for BChE [8]: 3.7
IC50 [8, 12]: 1.61 ± 0.04 µM
Porcine Liver CES, (%) inhibition [5]: 28.6 ± 1.6%
IC50 [2]: 7.21 ± 0.62 µM
Ferric Reducing Antioxidant Power, FRAP Units [3]: 0.58 ± 0.03
IC50 [4]: 17.1 ± 1.4 µM
ABTS^•+-Scavenging Activity, TEAC [4]: 1.13 ± 0.05

CC(C)(C)c1cc(C=NCCNc2c3c(nc4ccccc24)CCCCCC3)cc(C(C)(C)C)c1O [Compound 7d, 2,6-Di-tert-butyl-4-{[2-(6,7,8,9,10,11-hexahydro-cycloocta[b]quinolin-12-ylamino)-ethylimino]-methyl}-phenol]
Radical Scavenging Capacity in Luminol Chemiluminescence Assay, Luminescence Inhibition, % [1]: 95.0 ± 0.2%
Displacement of Propidium from EeAChE PAS (%) [6]: 17.1 ± 1.8%
IC50 [7, 11]: 45 ± 5.7 µM
Selectivity for BChE [8]: 10.5
IC50 [8, 12]: 4.27 ± 0.26 µM
Porcine Liver CES, (%) inhibition [5]: 20.4 ± 1.6%
IC50 [2]: 14.8 ± 1.3 µM
Ferric Reducing Antioxidant Power, FRAP Units [3]: 0.57 ± 0.02
IC50 [4]: 17.8 ± 1.7 µM
ABTS^•+-Scavenging Activity, TEAC [4]: 1.12 ± 0.05

CC(C)(C)c1cc(CNCCNc2c3c(nc4ccccc24)CCC3)cc(C(C)(C)C)c1O [Compound 8a, 2,6-Di-tert-butyl-4-{[2-(2,3-dihydro-1H-cyclopenta[b]quinolin-9-ylamino)-ethylamino]-methyl}-phenol]
Radical Scavenging Capacity in Luminol Chemiluminescence Assay, Luminescence Inhibition, % [1]: 95.0 ± 0.1%
Displacement of Propidium from EeAChE PAS (%) [6]: 16.4 ± 1.4%
IC50 [7]: 3.5 ± 0.33 µM
IC50 [8]: 0.652 ± 0.005 µM
Selectivity for BChE [8]: 5.4
Porcine Liver CES, (%) inhibition [5]: 19.6 ± 1.3%
IC50 [2]: 6.23 ± 0.33 µM
Ferric Reducing Antioxidant Power, FRAP Units [3]: 0.77 ± 0.02
Time of maximum binding of the ABTS radical [4]: 5 min
IC50 [4]: 12.7 ± 1.1 µM
ABTS^•+-Scavenging Activity, TEAC [4]: 1.39 ± 0.05

CC(C)(C)c1cc(CNCCNc2c3c(nc4ccccc24)CCCCC3)cc(C(C)(C)C)c1O [Compound 8c, 2,6-Di-tert-butyl-4-{[2-(7,8,9,10-tetrahydro-6H-cyclohepta[b]quinolin-11-ylamino)-ethylamino]-methyl}-phenol]
Radical Scavenging Capacity in Luminol Chemiluminescence Assay, Luminescence Inhibition, % [1]: 91.0 ± 0.6%
Displacement of Propidium from EeAChE PAS (%) [6]: 13.6 ± 1.2%
IC50 [7]: 1.9 ± 0.16 µM
IC50 [8]: 0.084 ± 0.008 µM
Porcine Liver CES, (%) inhibition [5]: 26.0 ± 1.9%
IC50 [2]: 9.38 ± 0.12 µM
Ferric Reducing Antioxidant Power, FRAP Units [3]: 0.80 ± 0.06
Time of maximum binding of the ABTS radical [4]: 5 min
IC50 [4]: 14.1 ± 0.8 µM
ABTS^•+-Scavenging Activity, TEAC [4]: 1.35 ± 0.04

Cc1c(C)c2c(c(C)c1O)CCC(C)(C(=O)O)O2 (stereo not drawn) [Trolox, 6-hydroxy-2,5,7,8-tetramethychroman-2-carboxylic acid, reference compound]
Radical Scavenging Capacity in Luminol Chemiluminescence Assay, Luminescence Inhibition, % [1]: 88.0 ± 1.0%
IC50 [2]: 91.8 ± 0.3 µM
Ferric Reducing Antioxidant Power, FRAP Units [3]: 1.0
IC50 [4]: 20.1 ± 1.2 µM
ABTS^•+-Scavenging Activity, TEAC [4]: 1.0

O=C(CCCCC1CCSS1)NCCCNc1c2c(nc3cc(Cl)ccc13)CCCC2 (stereo not drawn) [lipocrine]
IC50 [9]: 45 µM
IC50 [10]: 0.000253 µM
